Key:
Type in all cases: in vivo
Kochia (Kochia scoparia) [1] = assay: Test A preemergence; details: Bassia scoparia, pre-emergence, 240 h, 0 to 100 scale where 0 is no effect and 100 is complete control, read-out: Kochia plant response rating
Outline: (§1)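 Visual injury, scored on a 0–100 scale relative to untreated controls, was recorded about 10 d after application. Treatments were a preemergence soil spray over planted seeds or a postemergence spray on plants at the one- to two-leaf stage, 2 to 10 cm tall, all in loam soil–sand blend in the greenhouse.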

[2] = test system: barnyardgrass (Echinochloa crus-galli); assay: Test A preemergence; details: Echinochloa crus-galli, pre-emergence, 240 h, 0 to 100 scale where 0 is no effect and 100 is complete control, read-out: Barnyardgrass plant response rating
Outline: as §1

[3] = test system: giant foxtail (Setaria faberii); assay: Test A preemergence; details: Setaria faberi, pre-emergence, 240 h, 0 to 100 scale where 0 is no effect and 100 is complete control, read-out: Foxtail, Giant plant response rating
Outline: as §1

[4] = test system: pigweed (Amaranthus retroflexus); assay: Test A preemergence; details: Amaranthus retroflexus, pre-emergence, 240 h, 0 to 100 scale where 0 is no effect and 100 is complete control, read-out: Pigweed plant response rating
[5] = test system: ragweed (common ragweed, Ambrosia elatior); assay: Test A preemergence; details: Ambrosia artemisiifolia, pre-emergence, 240 h, 0 to 100 scale where 0 is no effect and 100 is complete control, read-out: Ragweed plant response rating
Outline: as §1

[6] = test system: ryegrass, Italian (Italian ryegrass, Lolium multiflorum); assay: Test A preemergence; details: Lolium multiflorum, pre-emergence, 240 h, 0 to 100 scale where 0 is no effect and 100 is complete control, read-out: Ryegrass, Italian plant response rating
Outline: as §1

[7] = test system: Galium (catchweed bedstraw, Galium aparine); assay: Test A postemergence; details: Galium, post-emergence, 240 h
Outline: as §1

Kochia (Kochia scoparia) [8] = assay: Test A postemergence; details: Bassia scoparia, post-emergence, 240 h
Outline: as §1

[9] = test system: barnyardgrass (Echinochloa crus-galli); assay: Test A postemergence; details: Echinochloa crus-galli, post-emergence, 240 h
Outline: as §1

[10] = test system: blackgrass (Alopecurus myosuroides); assay: Test A postemergence; details: Alopecurus myosuroides, post-emergence, 240 h
Outline: as §1

corn (Zea mays) = assay: Test A postemergence; details: Zea mays, post-emergence, 240 h
Outline: as §1

[11] = test system: giant foxtail (Setaria faberii); assay: Test A postemergence; details: Setaria faberi, post-emergence, 240 h
Outline: as §1

[12] = test system: pigweed (Amaranthus retroflexus); assay: Test A postemergence; details: Amaranthus retroflexus, post-emergence, 240 h
Outline: as §1

[13] = test system: ragweed (common ragweed, Ambrosia elatior); assay: Test A postemergence; details: Ambrosia artemisiifolia, post-emergence, 240 h
Outline: as §1

[14] = test system: ryegrass, Italian (Italian ryegrass, Lolium multiflorum); assay: Test A postemergence; details: Lolium multiflorum, post-emergence, 240 h
Outline: as §1

[15] = test system: wheat (Triticum aestivum); assay: Test A postemergence; details: Triticum aestivum, post-emergence, 240 h
Outline: as §1

[16] = test system: barnyardgrass (Echinochloa crus-galli); assay: Test B flooded paddy test; details: Echinochloa crus-galli, 250 g ai/ha, Flood; 0 to 100 scale where 0 is no effect and 100 is complete control; read-out: Barnyardgrass plant response rating
Outline: (§2)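 Compound goes directly into floodwater once pots are flooded 3 cm above soil, targeting plants at two leaves; the water depth is then held for the test duration. Plants sit 13–15 d in a greenhouse and are rated visually, 100 denoting complete control.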

[17] = test system: ducksalad (Heteranthera limosa); assay: Test B flooded paddy test; details: Heteranthera limosa, 250 g ai/ha, Flood; 0 to 100 scale where 0 is no effect and 100 is complete control; read-out: Ducksalad plant response rating
Outline: as §2

rice (Oryra sativa) = assay: Test B flooded paddy test; details: Oryza sativa, 250 g ai/ha, Flood; 0 to 100 scale where 0 is no effect and 100 is complete control; read-out: Rice plant response rating
Outline: as §2

[18] = test system: sedge, umbrella (small-flower umbrella sedge, Cyperus difformis); assay: Test B flooded paddy test; details: Cyperus difformis, 250 g ai/ha, Flood; 0 to 100 scale where 0 is no effect and 100 is complete control; read-out: Sedge, Umbrella plant response rating
Outline: as §2

[19] = 125 g ai/ha, preemergence, approx. 10 d

Cc1ccc([C@H]2CN(C)C(=O)[C@@H]2C(=O)Nc2cnccc2C)cc1 [Compound 1070]
0%: pest or weed control at 31 g/ha (Kochia (Kochia scoparia) [1]; 31 g ai/ha, Preemergence) | pest or weed control at 125 g/ha (Kochia (Kochia scoparia) [1]; [19]) | pest or weed control at 31 g/ha ([2]; 31 g ai/ha, Preemergence) | pest or weed control at 125 g/ha [2, 19] | pest or weed control at 31 g/ha ([3]; 31 g ai/ha, Preemergence) | pest or weed control at 31 g/ha ([4]; 31 g ai/ha, Preemergence) | pest or weed control at 125 g/ha [4, 19] | pest or weed control at 31 g/ha ([5]; 31 g ai/ha, Preemergence) | pest or weed control at 125 g/ha [5, 19] | pest or weed control at 31 g/ha ([6]; 31 g ai/ha, Preemergence) | pest or weed control at 125 g/ha [6, 19] | pest or weed control at 125 g/ha ([7]; 125 g ai/ha, postemergence, visual injury on 0 to 100 scale (0 no effect, 100 complete control), approx. 10 d, read-out: Galium plant response rating) | pest or weed control at 31 g/ha ([7]; Postemergence, 31 g ai/ha, visual injury after approx. 10 d, 0 to 100 scale, 0 no effect, 100 complete control, read-out: Plant response rating, Galium) | pest or weed control at 125 g/ha (Kochia (Kochia scoparia) [8]; 125 g ai/ha, postemergence, visual injury on 0 to 100 scale (0 no effect, 100 complete control), approx. 10 d, read-out: Kochia plant response rating) | pest or weed control at 31 g/ha (Kochia (Kochia scoparia) [8]; Postemergence, 31 g ai/ha, visual injury after approx. 10 d, 0 to 100 scale, 0 no effect, 100 complete control, read-out: Plant response rating, Kochia) | pest or weed control at 125 g/ha ([9]; 125 g ai/ha, postemergence, visual injury on 0 to 100 scale (0 no effect, 100 complete control), approx. 10 d, read-out: Barnyardgrass plant response rating) | pest or weed control at 31 g/ha ([9]; Postemergence, 31 g ai/ha, visual injury after approx. 10 d, 0 to 100 scale, 0 no effect, 100 complete control, read-out: Plant response rating, Barnyardgrass) | pest or weed control at 125 g/ha ([10]; 125 g ai/ha, postemergence, visual injury on 0 to 100 scale (0 no effect, 100 complete control), approx. 10 d, read-out: Blackgrass plant response rating) | pest or weed control at 31 g/ha ([10]; Postemergence, 31 g ai/ha, visual injury after approx. 10 d, 0 to 100 scale, 0 no effect, 100 complete control, read-out: Plant response rating, Blackgrass) | plant injury at 125 g/ha (corn (Zea mays); 125 g ai/ha, postemergence, visual injury on 0 to 100 scale (0 no effect, 100 complete control), approx. 10 d, read-out: Corn plant response rating) | Corn plant response rating (crop injury, 0 = no effect, 100 = complete kill) at 31 g/ha (corn (Zea mays); Postemergence, 31 g ai/ha, visual injury after approx. 10 d, 0 to 100 scale, 0 no effect, 100 complete control) | pest or weed control at 125 g/ha ([11]; 125 g ai/ha, postemergence, visual injury on 0 to 100 scale (0 no effect, 100 complete control), approx. 10 d, read-out: Foxtail, Giant plant response rating) | pest or weed control at 31 g/ha ([11]; Postemergence, 31 g ai/ha, visual injury after approx. 10 d, 0 to 100 scale, 0 no effect, 100 complete control, read-out: Plant response rating, Foxtail, Giant) | pest or weed control at 125 g/ha ([12]; 125 g ai/ha, postemergence, visual injury on 0 to 100 scale (0 no effect, 100 complete control), approx. 10 d, read-out: Pigweed plant response rating) | pest or weed control at 31 g/ha ([12]; Postemergence, 31 g ai/ha, visual injury after approx. 10 d, 0 to 100 scale, 0 no effect, 100 complete control, read-out: Plant response rating, Pigweed) | pest or weed control at 125 g/ha ([13]; 125 g ai/ha, postemergence, visual injury on 0 to 100 scale (0 no effect, 100 complete control), approx. 10 d, read-out: Ragweed plant response rating) | pest or weed control at 31 g/ha ([13]; Postemergence, 31 g ai/ha, visual injury after approx. 10 d, 0 to 100 scale, 0 no effect, 100 complete control, read-out: Plant response rating, Ragweed) | pest or weed control at 125 g/ha ([14]; 125 g ai/ha, postemergence, visual injury on 0 to 100 scale (0 no effect, 100 complete control), approx. 10 d, read-out: Ryegrass, Italian plant response rating) | pest or weed control at 31 g/ha ([14]; Postemergence, 31 g ai/ha, visual injury after approx. 10 d, 0 to 100 scale, 0 no effect, 100 complete control, read-out: Plant response rating, Ryegrass, Italian) | plant injury at 125 g/ha ([15]; 125 g ai/ha, postemergence, visual injury on 0 to 100 scale (0 no effect, 100 complete control), approx. 10 d, read-out: Wheat plant response rating) | plant injury at 31 g/ha ([15]; Postemergence, 31 g ai/ha, visual injury after approx. 10 d, 0 to 100 scale, 0 no effect, 100 complete control, read-out: Plant response rating, Wheat) | pest or weed control at 250 g/ha [16] | pest or weed control at 250 g/ha (rice (Oryra sativa)) | pest or weed control at 250 g/ha [18]
60%: pest or weed control at 125 g/ha [3, 19]
80%: pest or weed control at 250 g/ha [17]
